The results in this text go back to patent US10894807B2 (Siemens Medical Solutions USA, Inc., priority 2011, dated 2021).

For the test, the target named is human PSMA (Homo sapiens (Human), UniProt Q04609). Put plainly: Enzymatic assay for in vitro evaluation of PSMA inhibitors (fluorescent assay of PSMA activity, NAAG substrate, OPA detection of glutamate). The class given is biochemical. As to the method: Enzymatic Assay for In Vitro Evaluation of PSMA Inhibitors
The inhibitory activity of all compounds was determined using a fluorescent assay of human PSMA activity. The enzyme used in the assay was purchased from R&D Systems and stored at −80° C. The PSMA activity was assayed in a two-step process. In the first step, aliquots of enzyme (0.2 μg/mL) were incubated for 1 h at 37° C. in 50 mM HEPES, 0.1 M NaCl, pH 7.5, in the presence of 20 μM NAAG and the given inhibitor, in a volume of 250 μL, to allow for the accumulation of glutamate produced in the PSMA reaction. In the second step, the amount of accumulated glutamate was measured using the OPA reaction, and the fluorescence was read with a SpectraMax fluorescent plate reader using excitation at 330 nm and emission at 450 nm. The final Ki values for each inhibitor were calculated from the respective IC50 values using the Cheng and Prusoff equation.

Like-named read-outs stand apart in the source and are kept apart here.

human PSMA, sequence (Q04609 whole entry): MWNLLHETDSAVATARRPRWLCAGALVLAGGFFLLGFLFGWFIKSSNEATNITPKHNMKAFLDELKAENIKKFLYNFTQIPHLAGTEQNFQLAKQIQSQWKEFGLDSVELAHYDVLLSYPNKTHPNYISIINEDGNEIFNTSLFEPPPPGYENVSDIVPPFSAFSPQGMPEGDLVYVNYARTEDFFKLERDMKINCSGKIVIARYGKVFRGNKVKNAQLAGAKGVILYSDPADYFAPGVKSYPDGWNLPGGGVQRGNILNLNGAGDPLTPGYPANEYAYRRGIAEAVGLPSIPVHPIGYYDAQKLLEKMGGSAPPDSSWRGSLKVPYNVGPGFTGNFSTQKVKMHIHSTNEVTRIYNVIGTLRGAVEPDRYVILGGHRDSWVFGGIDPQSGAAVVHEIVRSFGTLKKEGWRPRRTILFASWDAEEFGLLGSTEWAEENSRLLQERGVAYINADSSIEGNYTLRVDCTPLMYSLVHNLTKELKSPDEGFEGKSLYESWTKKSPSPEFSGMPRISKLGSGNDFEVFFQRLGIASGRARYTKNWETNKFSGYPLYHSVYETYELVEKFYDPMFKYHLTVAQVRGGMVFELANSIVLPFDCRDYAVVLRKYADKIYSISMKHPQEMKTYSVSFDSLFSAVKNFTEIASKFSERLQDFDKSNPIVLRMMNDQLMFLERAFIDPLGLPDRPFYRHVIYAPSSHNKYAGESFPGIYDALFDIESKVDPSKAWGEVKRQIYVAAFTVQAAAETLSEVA

As usually defined, the Ki is a measure of affinity in units of concentration, obtained from inhibition or displacement. Low readings indicate higher affinity, high ones lower affinity. As to `CCC1(CC)C(=O)N([C@@H](CCCCNC(=O)OCc2ccccc2)C(=O)O)C(=O)N([C@@H](CCC(=O)O)C(=O)O)C1=O` [P079, (S)-2-(3-((S)-5-(Benzyloxycarbonylamino)-1-carboxypentyl)-5,5-diethyl-2,4,6-trioxotetrahydropyrimidin-1(2H)-yl)pentanedioic Acid], the Ki came to 313 nM.

As to `CN(C(=O)N[C@@H](CCC(=O)O)C(=O)O)[C@@H](CCCCNC(=O)OCc1ccc([N+](=O)[O-])cc1)C(=O)O` [P176, (9S,13S)-10-Methyl-1-(4-nitrophenyl)-3,11-dioxo-2-oxa-4,10,12-triazapentadecane-9,13,15-tricarboxylic Acid], the “PSMA Blkg % (10 μM)” value (compound at 10 μM) is recorded as 77%.

In the case of `CN(C(=O)[C@H](CC(=O)O)NC(=O)c1ccc(-n2cc(CCCF)nn2)cc1)[C@@H](CCC(=O)O)C(=O)O` [P159, (S)-2-((S)-3-Carboxy-2-(4-(4-(3-fluoropropyl)-1H-1,2,3-triazol-1-yl)benzamido)-N-methylpropanamido)pentanedioic Acid], the “PSMA Blkg % (10 μM)” value (compound at 10 μM) came out at 39%.

With `CC(F)C(=O)Nc1ccc(C(=O)NCCCC[C@H](NC(=O)N(O)[C@@H](CCC(=O)O)C(=O)O)C(=O)O)cc1` (stereo partly drawn) [P186, (S)-2-(3-((S)-1-Carboxy-5-(4-(2-fluoropropanamido)benzamido)pentyl)-1-hydroxyureido)pentanedioic Acid], where the note is “compound at 10 μM”, the “PSMA Blkg % (10 μM)” value stood at 85%.

Take `O=C(O)CC[C@H](NC(=O)N[C@@H](Cc1ccc(OCCn2cc(CCCF)nn2)cc1)C(=O)O)C(=O)O` [P195, (S)-2-(3-((S)-1-Carboxy-2-(4-(2-(4-(3-fluoropropyl)-1H-1,2,3-triazol-1-yl)ethoxy)phenyl)ethyl)ureido)pentanedioic Acid]: the Ki was 66 nM. The “PSMA Blkg % (10 μM)” value (10 μM) turned out to be 96%.

On to `O=C(O)CC[C@H](NC(=O)N(O)[C@@H](CCCCNC(=O)c1ccc(F)cc1)C(=O)O)C(=O)O` [P169, (S)-2-(3-((S)-1-Carboxy-5-(4-fluorobenzamido)pentyl)-3-hydroxyureido)pentanedioic Acid], for which the affinity, expressed as Ki, was 156 nM. Further, under “compound at 10 μM”, the “PSMA Blkg % (10 μM)” value came out at 79%.

`O=C(O)CC[C@H](NC(=O)N[C@@H](CCCCNC(=O)c1ccc(F)cc1)C(=O)O)C(=O)O` [P155]: affinity was put at a Ki of 3.1 nM. In addition, under “compound at 10 μM”, the “PSMA Blkg % (10 μM)” value is 97%.

As for `CN(C(=O)N[C@@H](CCC(=O)O)C(=O)O)[C@@H](CCCCNC(=O)Cn1cc(Cn2ccnc2[N+](=O)[O-])nn1)C(=O)O` [P044, (S)-2-(3-((S)-1-Carboxy-5-(2-(4-2((2-nitro-1H-imidazo-1-yl)methyl)-1H-1,2,3-triazol-1-yl)acetamido)pentyl)-3-methylureido)pentanedioic Acid], the “PSMA Blkg % (10 μM)” value (compound at 10 μM) is on record as 62%.

Molecule `O=C(O)CC[C@H](NC(=O)N[C@@H](Cc1ccc(OCCOCCOCCn2cc(CCCF)nn2)cc1)C(=O)O)C(=O)O` [P203, (S)-2-(3-((S)-1-Carboxy-2-(4-(2-(2-(2-(4-(3-fluoropropyl)-1H-1,2,3-triazol-1-yl)ethoxy)ethoxy)ethoxy)phenyl)ethyl)ureido)pentanedioic Acid] registered a Ki of 41 nM. Moreover, the “PSMA Blkg % (10 μM)” value (10 μM) is on record as 97%.

Regarding `O=C(O)CC[C@H](NC(=O)N[C@@H](Cc1ccc(NC(=O)c2cc(C(=O)Nc3ccc(C[C@H](NC(=O)N[C@@H](CCC(=O)O)C(=O)O)C(=O)O)cc3)cc(-n3cc(CCCF)nn3)c2)cc1)C(=O)O)C(=O)O` [P238, (2S,2′S)-2,2′-(((((1S,1′S)-(((5-(4-(3-Fluoropropyl)-1H-1,2,3-triazol-1-yl)isophthaloyl)bis(azanediyl))bis(4,1-phenylene))bis(1-carboxyethane-2,1-diyl))bis(azanediyl))bis(carbonyl))bis(azanediyl))dipentanedioic Acid], the inhibition constant Ki was < 0.3 nM and the “PSMA Blkg % (1.0 μM)” value was determined as 100%.

For `O=C(O)CC[C@@H](C(=O)O)N(O)S(=O)(=O)NC(=O)OCc1ccccc1` [P179, (S)-2-((N-((Benzyloxy)carbonyl)sulfamoyl)(hydroxy)amino)pentanedioic Acid], the “PSMA Blkg % (10 μM)” value (compound at 10 μM) is 4%.

With `CN(C(=O)N[C@@H](CCC(=O)O)C(=O)O)[C@@H](CCCCNCc1ccc(F)cc1)C(=O)O` [P184, (S)-2-(3-((S)-1-Carboxy-5-(4-fluorobenzylamino)pentyl)-3-methylureido)pentanedioic Acid], where the note is “compound at 10 μM”, the “PSMA Blkg % (10 μM)” value was determined as 10%.

For the molecule `C#Cc1ccc(C(=O)NCCCC[C@@H](C(=O)O)N(O)C(=O)N[C@@H](CCC(=O)O)C(=O)O)cc1` [P168, (S)-2-(3-((S)-1-Carboxy-5-(4-ethynylbenzamido)pentyl)-3-hydroxyureido)pentanedioic Acid], under “compound at 10 μM”, the “PSMA Blkg % (10 μM)” value was found to be 98%.

The molecule `CN(C(=O)N[C@@H](CCC(=O)O)C(=O)O)[C@@H](CCCCNC(=O)c1ccc(F)cc1)C(=O)O` [P156, (S)-2-(3-((S)-1-Carboxy-5-(4-fluorobenzamido)pentyl)-3-methylureido)pentanedioic Acid] gave a Ki of 219 nM. Moreover, the “PSMA Blkg % (10 μM)” value (compound at 10 μM) is 87%.

On to `NC1C(=O)N([C@@H](CCCCNC(=O)OCc2ccccc2)C(=O)O)C(=O)N([C@@H](CCC(=O)O)C(=O)O)C1=O` (stereo partly drawn) [P091, (2S)-2-(5-Amino-3-((S)-5-(benzyloxycarbonylamino)-1-carboxypentyl)-2,4,6-trioxotetrahydropyrimidin-1(2H)-yl)pentanedioic Acid], for which the “PSMA Blkg % (10 μM)” value (compound at 10 μM) was found to be 23%.

With `CC(C)(C)OC(=O)NCCCCN(CC(=O)N[C@@H](CCC(=O)O)C(=O)O)C(N)=O` [P047, (S)-2-(2-(1-(4-(tert-Butoxycarbonylamino)butyl)ureido)acetamido)pentanedioic Acid], the “PSMA Blkg % (10 μM)” value (compound at 10 μM) was determined as 0%.

`O=C(O)CC[C@H](NC(=O)N[C@@H](Cc1ccc(NC(=O)Nc2ccc(-n3cc(CCCF)nn3)cc2)cc1)C(=O)O)C(=O)O` [P212, (S)-2-(3-((S)-1-Carboxy-2-(4-(3-(4-(4-(3-fluoropropyl)-1H-1,2,3-triazol-1-yl)phenyl)ureido)phenyl)ethyl)ureido)pentanedioic Acid] gave a Ki of 3.1 nM. Further, the “PSMA Blkg % (10 μM)” value (10 μM) is 99%.

Take `CN(C(=O)N[C@@H](CCC(=O)O)C(=O)O)[C@@H](CCCCNC(=O)NCc1ccccc1)C(=O)O` [P175, (9S,13S)-10-Methyl-3,11-dioxo-1-phenyl-2,4,10,12-tetraazapentadecane-9,13,15-tricarboxylic Acid]: the “PSMA Blkg % (10 μM)” value (compound at 10 μM) came to 18%.

As for `[N-]=[N+]=Nc1ccc(C(=O)NCCCC[C@@H](C(=O)O)N2C(=O)CC(=O)N([C@@H](CCC(=O)O)C(=O)O)C2=O)cc1` [P057, (S)-2-(3-((S)-5-(4-Azidobenzamido)-1-carboxypentyl)-2,4,6-trioxotetrahydropyrimidin-1(2H)-yl)pentanedioic Acid], under “compound at 10 μM”, the “PSMA Blkg % (10 μM)” value is recorded as 32%.

On to `O=C(O)CC[C@H](NC(=O)N(CC(=O)O)[C@@H](CCCCNC(=O)OCc1ccccc1)C(=O)NO)C(=O)O` [P012, (S)-2-(3-((S)-6-(((Benzyloxy)carbonyl)amino)-1-(hydroxyamino)-1-oxohexan-2-yl)-3-(carboxymethyl)ureido)pentanedioic Acid], for which the “PSMA Blkg % (10 μM)” value (compound at 10 μM) is on record as 0%.

For the molecule `O=C(O)CC[C@H](NC(=O)C[C@@H](NC(=O)OCC1c2ccccc2-c2ccccc21)C(=O)O)C(=O)O` [P199, (S)-2-[(R)-((((9H-Fluoren-9-yl)methoxy)carbonyl)amino)-3-carboxypropanamido]pentanedioic Acid], the Ki is > 188 nM. Further, the “PSMA Blkg % (10 μM)” value (10 μM) is on record as 82%.

In the case of `O=C(O)CC[C@@H](NC(=O)N[C@@H](CCCCNC(=O)c1cc(C(=O)NCCCC[C@H](NC(=O)N[C@H](CCC(=O)O)C(=O)O)C(=O)O)cc(-n2cc(CCCF)nn2)c1)C(=O)O)C(=O)O` [P297, (2R,2′R)-2,2′-(((((1S,1′S)-((5-(4-(3-Fluoropropyl)-1H-1,2,3-triazol-1-yl)isophthaloyl)-bis(azanediyl))bis(1-carboxypentane-5,1-diyl))bis(azanediyl))bis(carbonyl))-bis(azanediyl))dipentanedioic Acid], the “PSMA Blkg % (1.0 μM)” value is given as 31%.

Turning to `CCC1(CC)C(=O)N([C@@H](CCCCNCc2ccc(OC)cc2)C(=O)O)C(=O)N([C@@H](CCC(=O)O)C(=O)O)C1=O` [P112, (S)-2-(3-((S)-1-Carboxy-5-(4-methoxybenzylamino)pentyl)-5,5-diethyl-2,4,6-trioxotetrahydropyrimidin-1(2H)-yl)pentanedioic Acid], the “PSMA Blkg % (10 μM)” value (compound at 10 μM) stood at 4%.

As to `NS(=O)(=O)N(OC(=O)OCc1ccccc1)[C@@H](CCC(=O)O)C(=O)O` [P180], the “PSMA Blkg % (10 μM)” value (compound at 10 μM) is recorded as 5%.

For the molecule `O=C(O)CC[C@H](NC(=O)N[C@@H](CCCCNc1nc(-c2cccc(NC(=O)Cn3cc(CCCF)nn3)c2)cs1)C(=O)O)C(=O)O` [P244, (S)-2-(3-((S)-1-Carboxy-5-(4-(3-(2-(4-(3-fluoropropyl)-1H-1,2,3-triazol-1-yl)acetamido)phenyl)thiazol-2-ylamino)pentyl)ureido)pentanedioic Acid], affinity was put at a Ki of 0.38 nM and the “PSMA Blkg % (1.0 μM)” value came out at 98%.

Turning to `CC(=O)Oc1ccc2c(c1)Oc1cc(OC(C)=O)ccc1C21OC(=O)c2ccc(C(=O)NCCCC[C@H](NC(=O)N[C@@H](CCC(=O)O)C(=O)O)C(=O)O)cc21` [P185, (S)-2-(3-((S)-1-Carboxy-5-(3′,6′-diacetoxy-3-oxo-3H-spiro[isobenzofuran-1,9′-xanthen]-6-ylcarboxamido)pentyl)ureido)pentanedioic Acid], the “PSMA Blkg % (10 μM)” value worked out at 99%.

Regarding `Cc1ccc(S(=O)(=O)NCCCC[C@@H](C(=O)O)N(C)C(=O)N[C@@H](CCC(=O)O)C(=O)O)cc1` [P177, (S)-2-(3-((S)-1-Carboxy-5-(4-methylphenylsulfonamido)pentyl)-3-methylureido)pentanedioic Acid], the “PSMA Blkg % (10 μM)” value (compound at 10 μM) stood at 38%.
